# Measured values taken from patent publication US20020142982A1, “Method for regulating angiogenesis” (priority 1999, published 2002).
# Tests used:
# Type in all cases: cell-based, human
# [1] = test system: ERK-2; test: ERK-2 immune complex kinase assay in HUVEC; conditions: PTx 200 ng/mL or PD98059 10 μM, 2 hours pretreatment
# Procedure: As a second functional assay, ERK-2 kinase activity was measured in response to SPP treatment. For these experiments, endothelial cells were starved for 19 hours, and then stimulated with SPP for 10 minutes. Cells were then lysed, and ERK-2 kinase activity was measured by an immune complex kinase assay using myelin basic protein (MBP) as substrate. Some cells were pretreated with pertussis toxin (PTx) at 200 ng/mL, or PD98059 at 10 μM for 2 hours prior to stimulation.
# [2] = test system: HUVEC; test: C2-Ceramide-induced apoptosis of HUVEC (DNA fragmentation); conditions: pretreatment 2 hours; PD98059 10 μM
# Procedure: The ability of SPP to protect endothelial cells from apoptosis was investigated. In these experiments, HUVEC were treated with 1 μM C2-Ceramide for 12 hours and apoptosis was measured in the following manner: HUVEC were plated onto coverslips and allowed to grow for 2 days. Cells were washed three times with medium M199, and treated with 1 μM C2-Ceramide (Biomol) for 12 hours in the presence or absence of SPP. Subsequently, cells were fixed with methanol at −20° C. for 5 minutes, air dried, and stained with Hoechst 33258 dye (0.5 μg/mL for 5 minutes; Sigma Chemical Co., St. Louis, Mo.). The apoptotic nuclei were identified with the aid of a Zeiss Axiovert 100TB fluorescence microscope. For quantification, HUVEC were labeled with ^3Hmethyl-thymidine (5 μCi/mL, NEN DuPont) for 24 hours. Following three washes with medium M199, cells were treated with C2-Ceramide as above. 12 hours later, cells were extracted with lysis buffer (5 mM tris, pH 7.4, 2 mM EDTA, 0.5% TX-100) at 4° C. for 20 minutes. After centrifugation (15,000 g, 20 minutes), the radioactivity present in the supernatant and sediment was measured by liquid scintillation counting. The percentage of DNA fragmentation was determined as ((supernatant cpm)/(supernatant cpm+sediment cpm))×100%.
# SPP+PTx and SPP+PD98059 (10 μM), respectively, for 2 hours prior to the addition of C2-Ceramide (1 μM) and SPP (10 to 500 nM). Data are mean±standard deviation of triplicate determinations from a representative experiment which was repeated two times. […] A similar effect was also seen when growth factor withdrawal, and 15-deoxy Δ^12,14 prostaglandin J2 were used as apoptotic stimuli (data not shown). […] Therefore SPP induced endothelial cell survival requires the Gi/ERK signaling pathway.
# [3] = test system: HUVEC; test: Adherens junction assembly in HUVEC, immunofluorescence of VE-cadherin and catenins; conditions: for VE-cadherin, α-, β- and γ-catenin localization at cell-cell junctions: 500 nM, 1 hour
# Procedure: To investigate whether SPP regulates the formation of adherens junction in endothelial cells, HUVEC were plated at a density of 2×10^4 cells/em^2 for 2 days, starved in lipid-depleted medium and treated without (cont) or with SPP (500 nM for 1 hours). For these experiments, after treatment cells were washed with ice-cold PBS, fixed with 4% formaldehyde at room temperature or methanol at −20° C. for 15 minutes. In the case of formaldehyde fixation, cells were permeabilized with 0.2% TX-100. After washing with PBS, cells were stained with antibodies as follows: VE-cadherin ([…], Transduction Labs, San Diego, Calif.; 1 μg/mL, Santa Cruz Biotechnology, Inc., Santa Cruz, Calif.), α-catenin ([…], Transduction Labs), β-catenin (1.25 μg/mL, Transduction Labs; 0.4 μg/mL, Santa Cruz), γ-catenin ([…], Transduction Labs). The primary antibody staining was visualized with FITC-conjugated goat anti-rabbit or TRITC conjugated sheep anti-mouse (1:1000, Cappel, now owned by ICN, Costa Mesa, Calif.) for 30 minutes at room temperature, and imaged on a Zeiss Axiovert 100TV fluorescence microscope. […]
# [4] = test system: HUVEC; test: HUVEC morphogenesis on MATRIGEL (in vitro angiogenesis, tubular length); conditions: for HUVEC morphogenesis on MATRIGEL (tubular length): 12-18 hours, SPM and C1P 1 μM
# Procedure: FIG. 42 is microscope images showing morphogenesis of HUVEC cells plated on Matrigel. HUVEC cells were transduced with 50 MOI of indicated viruses; a,b=none, c=β-gal, d=wild-type EDG-1, e=T236AEDG-1, f=T236AEDG-1+wild-type Akt. Total viral load in c-f is normalized. In vitro angiogenesis assay on Matrigel was conducted in the presence (b to f) or not (a) of 100 nM S1P. The numbers are mean±s.e.m of total tubular length per microscopic field (n=2). Scale bar=170 μm.
# To investigate SPP induction of angiogenesis, 200 μL aliquots of thawed MATRIGEL were polymerized in 24-well tissue culture plates. HUVEC were trypsinized, resuspended in plain M199 medium containing soybean trypsin inhibitor (10 mg/mL, Sigma Chemical Co., St. Louis, Mo.). Following centrifugation (250 g; 5 minutes), cells were resuspended in plain M199 supplemented with 2% CFBS at a density of 1.5×10^5 cells/mL. 200 μL of cell suspension were seeded on these gels in the presence or absence of SPP (Biomol), for 12-18 hours. Cells were rinsed two times with phosphate buffered saline (PBS), and then fixed with 4% formaldehyde. Results were recorded photographically using a Zeiss Axiovert 100TV microscope equipped with a 5× objective. Five random fields of each well were photographed, and total tubular length was quantified by image analysis (Kinsella, J. et al., Experimental Cell Research 199: 56-62 (1992); Gamble J., et al., J. Cell Biol. 121: 931-943 (1993)).
# Scale bar represents 52 microns. These quantitative data are the mean±standard deviation of duplicate determinations from a representative experiment which was repeated at least three times. SPP concentrations (in μM) are indicated in parentheses. For SPP +PTx, HUVEC were pretreated with PTx (200 ng/mL) for 2 hours, trypsinized, plated onto MATRIGEL, then stimulated with 500 nM SPP in the presence of PTx (20 ng/mL) for 16-18 hours. For SPP+C3, HUVEC were pretreated with C3 exoenzyme (10 μg/mL) for 48 hours, trypsinized, plated onto MATRIGEL, stimulated with 500 nM SPP together with the same concentration of C3 exotoxin. SPM, sphingomyelin (1 μM). For C1P, C8-ceramide-1-phosphate (1 μM). The maximal effects achieved by 1 μM SPP was indistinguishable from the positive control medium which contained FBS.
# In these experiments, HUVEC were plated onto MATRIGEL in the presence of the same amount of corresponding antibodies without or with 500 nM SPP. 16 hours later, total length of HUVEC networks formed on MATRIGEL was quantified.
# [5] = test system: HUVEC; test: SPP-induced intracellular calcium in HUVEC (Indo-1 fluorescence); conditions: PTx 500 ng/mL pretreatment 16 hours
# Procedure: Functional assays were used to test for the presence of Gi-coupled and Gq-coupled SPP receptors in HUVEC. First, intracellular calcium levels were measured in response to SPP. For these experiments, cells were grown on 100-mm tissue culture dishes and loaded with the fluorescent calcium-sensitive dye, Indo-1 acetoxymethyl ester (Indo-1/AM, 5 μg/mL; Molecular Probes, Inc., Eugene, Oreg.), for 30 min at 37° C. Cells were then washed with medium M199, briefly trypsinized (0.05% porcine trypsin/0.02% EDTA in HBSS (JRH Biosciences, Lenexa, Kans.), and the trypsin activity was immediately neutralized with soybean trypsin inhibitor (5 μg/mL, Sigma Chemical Co., St. Louis, Mo.). Following centrifugation (250 g×5 min), cells were resuspended in M199 medium to a density of 2.7×10^5 cells/mL. Cells were then stimulated with different doses of SPP. Some cells were pretreated with the Gi inhibitor pertussis toxin (PTx, 500 ng-/mL) for 16 hours. Calcium ion concentration was then quantified by measuring changes in indo-1 fluorescence in 2 mL of cell suspension by a Hitachi F-2000 fluorescence Spectrophotometer with constant stirring. Fluorescence emission was monitored at 400 and 475 nm with excitation at 352 nm. [Ca^+2]1 was calculated as described in Volpi and Berlin, J. Cell Biol., Vol. 107, 2533-39 (1988).
Molecule,inhibition of SPP-induced ERK activity [1],inhibition of the cytoprotective effect of SPP [2],"VE-cadherin, α-, β- and γ-catenin localization at cell-cell junctions [3]",HUVEC morphogenesis on MATRIGEL (tubular length) [4],also measured
COc1cccc(-c2cc(=O)c3ccccc3o2)c1N [PD98059],inhibited completely,completely inhibited,–,–,–
ceramide,–,–,had no effect,–,–
"CCCCCCCCCCCCC/C=C/[C@@H](O)[C@H](COP(=O)(O)O)NC(=O)CCCCCCC [ceramide-1-phosphate, C8-ceramide-1-phosphate]",–,–,had no effect,inactive,–
sphingomyelin,–,–,had no effect,inactive,–
pertussis toxin,inhibited completely,completely inhibited,–,–,"inhibition of SPP-induced morphogenesis ([4]; 500 nM SPP, MATRIGEL): potently inhibited; inhibition of SPP-induced calcium response [5]: approximately 90%; inhibition of SPP-induced β-catenin translocation ([3]; HUVEC, SPP treatment): did not inhibit"
CCCCCCCCCCCCC/C=C/[C@@H](O)[C@@H](N)CO [sphingosine],–,–,had no effect,–,–
